Patent US8247538B2, “Preparation method of radioisotope labeling compound using carbon nanotube” (Korea Atomic Energy Research Institute, priority 2006, dated 2012)

Assay: In vivo dynamic kinetics, gamma camera imaging after intravenous injection
Design: species or system New Zealand White male rabbits
Conditions: rabbits, 100 μCi/0.1 ml into left ear vein
Protocol: The ^99mTc-2,6-diisopropylacetanilidoiminodiacetic acid prepared in Example 1 was assayed for in vivo dynamic kinetics as follows.
After 6-week-old New Zealand White male rabbits (2887.6±101.5 g, n=3) were anesthetized with ketamine and xylazine, the radioactive compound of Example 1 was injected at a dose of 100 μCi/0.1 ml into the left ear vein of each of the rabbits. All of the rabbits were placed in a pronating posture. Moving pictures were taken for 30 min of each of the rabbits using a gamma camera fitted with a low energy, multipurpose collimator while 16 still pictures were also taken at predetermined time intervals. The image analyzer was set to 140 KeV with a 20% energy window. Image data were analyzed under the dynamic procedure of a Microdelta system (Simens, USA). The static images were taken at 1.52, 3.45, 5.37, 7.30, 9.22, 11.15, 13.07, 15.00, 16.52, 18.45, 20.37, 22.30, 24.22, 26.15, 28.07 and 30 min after the injection, and the results are given in FIG. 3.

## ^99mTc-2,6-diisopropylacetanilidoiminodiacetic acid [Example 1]
Images 1.52-30 min after injection
  in vivo distribution seen in gamma camera images (FIG. 3): detected prominently in the hepatobiliary system, with the highest concentration at the liver
Imaging for 30 min
  contrast ratio between images taken of the liver and of other organs, compared with conventional contrast media for imaging the hepatobiliary system: higher
